Data from ChEMBL document CHEMBL5647688, “Mitogen-activated protein kinase (MEK/ERK) inhibition sensitizes cancer cells to centromere-associated protein E inhibition” (Int J Cancer, 2013).

What was measured:
Assay type in all cases: functional
HCT-116 = test: Synergistic cytotoxicity against human HCT-116 cells expressing KRAS mutant assessed as combination index at ED75 measured after 72 hrs in presence of MEK inhibitor GSK1120212 by Cell-titer Glo reagent assay
NCI-H2122 = test: Synergistic cytotoxicity against human NCI-H2122 cells expressing KRAS mutant assessed as combination index at ED75 measured after 72 hrs in presence of MEK inhibitor GSK1120212 by Cell-titer Glo reagent assay
Capan-2 = test: Synergistic cytotoxicity against human Capan-2 cells expressing KRAS mutant assessed as combination index at ED75 measured after 72 hrs in presence of MEK inhibitor GSK1120212 by Cell-titer Glo reagent assay
[1] = Synergistic cytotoxicity against human NB-1771 cells assessed as combination index at ED 50 measured after 72 hrs in presence of concurrent treatment of […] inhibitor CI-1040 by Cell-titer Glo reagent assay
MIA PaCa-2 = test: Synergistic cytotoxicity against human MIA PaCa-2 cells expressing KRAS mutant assessed as combination index at ED 50 measured after 72 hrs in presence of MEK inhibitor GSK1120212 by Cell-titer Glo reagent assay
NCI-H2030 = test: Synergistic cytotoxicity against human NCI-H2030 cells expressing KRAS mutant assessed as combination index at ED75 measured after 72 hrs in presence of MEK inhibitor GSK1120212 by Cell-titer Glo reagent assay
NCI-H23 = test: Synergistic cytotoxicity against human NCI-H23 cells assessed as combination index at ED75 measured after 72 hrs in presence of MEK inhibitor GSK1120212 by Cell-titer Glo reagent assay
A549 = test: Synergistic cytotoxicity against human A549 cells expressing KRAS mutant assessed as combination index at ED 50 measured after 72 hrs in presence of MEK inhibitor GSK1120212 by Cell-titer Glo reagent assay
HPAF-II = test: Synergistic cytotoxicity against human HPAF-II cells expressing KRAS mutant assessed as combination index at ED 50 measured after 72 hrs in presence of MEK inhibitor GSK1120212 by Cell-titer Glo reagent assay
NCI-H2170 = test: Synergistic cytotoxicity against human NCI-H2170 cells assessed as combination index at ED75 measured after 72 hrs in presence of MEK inhibitor GSK1120212 by Cell-titer Glo reagent assay
SK-N-FI = test: Synergistic cytotoxicity against human SK-N-FI cells assessed as combination index at ED 75 measured after 72 hrs in presence of SN-38 by Cell-titer Glo reagent assay

SMILES: CC(C)Oc1ccc(C(=O)N[C@H](CNC(=O)CN(C)C)Cc2ccc(-c3cn4cccc([C@H](C)O)c4n3)cc2)cc1Cl [GSK-923295A]
- CI (HCT-116): 0.384
- CI (NCI-H2122): 0.796
- CI (Capan-2): 0.153
- CI [1]: 0.136
- CI (MIA PaCa-2): 0.394
- CI (NCI-H2030): 2.329
- CI (NCI-H23): 0.234
- CI (A549): 0.614
- CI (HPAF-II): 0.567
- CI (NCI-H2170): 0.624
- CI (SK-N-FI): 1.754
